# Where “and” joins values, the source holds several entries; their conditions need not be identical. Identical values can stand only once. Toxic doses and inconclusive results are not listed.
# Test system: CD2F1 mice, L1210 leukemia ip, survival T/C
# Test: NCI In Vivo Anticancer Drug Screen. Data for tumor model L1210 Leukemia (intraperitoneal) in CD2F1 (CDF1) mice
# Details: higher = longer survival
# Procedure, shortened: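 Compound-dosed mice with transplantable tumor versus matched vehicle controls; endpoint ratio T/C reported.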
# [1] = endpoint: mean survival time, dose: 400.0 mg/kg/injection, schedule: Q04DX003 (ip), vehicle: saline with Tween-80
# [2] = endpoint: mean survival time, dose: 100.0 mg/kg/injection, schedule: Q04DX003 (ip), vehicle: saline with Tween-80
# [3] = endpoint: mean survival time, dose: 200.0 mg/kg/injection, schedule: Q04DX003 (ip), vehicle: saline with Tween-80
# [4] = endpoint: mean survival time, dose: 100.0 mg/kg/injection, schedule: Q01DX009 (ip), vehicle: saline with Tween-80
# [5] = endpoint: mean survival time, dose: 200.0 mg/kg/injection, schedule: Q01DX009 (ip), vehicle: saline with Tween-80
# [6] = endpoint: mean survival time, dose: 400.0 mg/kg/injection, schedule: Q01DX009 (ip), vehicle: saline with Tween-80
smiles,measurement,setting,value
NC(=S)N/N=C/c1ccc(OC(=O)COc2ccc(Cl)cc2)cn1,T/C,"endpoint: mean survival time, dose: 88.0 mg/kg/injection, schedule: Q01DX009 (ip), vehicle: saline with Tween-80",173 % of control
same,T/C,"endpoint: mean survival time, dose: 100.0 mg/kg/injection, schedule: Q04DX002 (ip), vehicle: saline with Tween-80",103 % of control and 111 % of control
same,T/C,"endpoint: mean survival time, dose: 118.0 mg/kg/injection, schedule: Q01DX001 (ip), vehicle: saline with Tween-80",109 % of control
same,T/C,"endpoint: mean survival time, dose: 118.0 mg/kg/injection, schedule: Q04DX003 (ip), vehicle: saline with Tween-80",150 % of control
same,T/C,"endpoint: mean survival time, dose: 132.0 mg/kg/injection, schedule: Q01DX009 (ip), vehicle: saline with Tween-80",214 % of control
same,T/C,"endpoint: mean survival time, dose: 178.0 mg/kg/injection, schedule: Q01DX001 (ip), vehicle: saline with Tween-80",118 % of control
same,T/C,"endpoint: mean survival time, dose: 178.0 mg/kg/injection, schedule: Q04DX003 (ip), vehicle: saline with Tween-80",166 % of control
same,T/C,"endpoint: mean survival time, dose: 200.0 mg/kg/injection, schedule: Q04DX002 (ip), vehicle: saline with Tween-80",114 % of control
same,T/C,"endpoint: mean survival time, dose: 266.0 mg/kg/injection, schedule: Q01DX001 (ip), vehicle: saline with Tween-80",123 % of control
same,T/C,"endpoint: mean survival time, dose: 266.0 mg/kg/injection, schedule: Q04DX003 (ip), vehicle: saline with Tween-80",170 % of control
same,T/C,"endpoint: mean survival time, dose: 300.0 mg/kg/injection, schedule: Q01DX009 (ip), vehicle: saline with Tween-80",93 % of control
same,T/C,[1],181 % of control
same,T/C,"endpoint: mean survival time, dose: 600.0 mg/kg/injection, schedule: Q04DX003 (ip), vehicle: saline with Tween-80",150 % of control
same,T/C,"endpoint: median survival time, dose: 25.0 mg/kg/injection, schedule: Q01DX009 (ip), vehicle: saline with Tween-80",164 % of control
same,T/C,"endpoint: median survival time, dose: 50.0 mg/kg/injection, schedule: Q01DX009 (ip), vehicle: saline with Tween-80",188 % of control
same,T/C,"endpoint: median survival time, dose: 50.0 mg/kg/injection, schedule: Q01DX009 (ip), vehicle: saline",172 % of control
same,T/C,"endpoint: median survival time, dose: 88.0 mg/kg/injection, schedule: Q01DX009 (ip), vehicle: saline with Tween-80",178 % of control
same,T/C,"endpoint: median survival time, dose: 100.0 mg/kg/injection, schedule: Q01DX009 (ip), vehicle: saline with Tween-80",175 % of control and 180 % of control
same,T/C,"endpoint: median survival time, dose: 100.0 mg/kg/injection, schedule: Q01DX009 (ip), vehicle: saline",209 % of control
same,T/C,"endpoint: median survival time, dose: 133.0 mg/kg/injection, schedule: Q01DX009 (ip), vehicle: saline with Tween-80",178 % of control
same,T/C,"endpoint: median survival time, dose: 200.0 mg/kg/injection, schedule: Q01DX009 (ip), vehicle: saline with Tween-80",182 % of control and 184 % of control and 213 % of control
same,T/C,"endpoint: median survival time, dose: 200.0 mg/kg/injection, schedule: Q01DX009 (ip), vehicle: saline",172 % of control
same,T/C,"endpoint: median survival time, dose: 300.0 mg/kg/injection, schedule: Q01DX009 (ip), vehicle: saline with Tween-80",102 % of control
same,T/C,"endpoint: median survival time, dose: 400.0 mg/kg/injection, schedule: Q01DX009 (ip), vehicle: saline with Tween-80",108 % of control
same,T/C,"endpoint: median survival time, dose: 400.0 mg/kg/injection, schedule: Q01DX009 (ip), vehicle: saline",97 % of control
O=C1CSC(=S)N1Cc1ccccc1,T/C,[2],101 % of control
same,T/C,[3],97 % of control
same,T/C,[1],97 % of control
CCOC(=O)c1ccc(NC/C(CN)=N/O)cc1,T/C,"endpoint: mean survival time, dose: 75.0 mg/kg/injection, schedule: Q01DX001 (ip), vehicle: other",95 % of control
same,T/C,"endpoint: mean survival time, dose: 150.0 mg/kg/injection, schedule: Q01DX001 (ip), vehicle: other",95 % of control
N#CC1C(=N)Cc2ccccc2-c2ccccc21 (stereo unspecified),T/C,[4],96 % of control
same,T/C,[2],108 % of control
same,T/C,[5],93 % of control
same,T/C,[3],101 % of control
same,T/C,[6],106 % of control
same,T/C,[1],101 % of control
CC1(C)C=C(Cc2ccccc2)C(=O)c2ccccc21,T/C,[4],94 % of control
same,T/C,[2],96 % of control
same,T/C,[5],97 % of control
same,T/C,[3],100 % of control
same,T/C,[6],97 % of control
same,T/C,[1],97 % of control
O=c1[nH]c(=O)n(C2OC(COP(=O)(O)O)C(O)C2O)nc1SCc1ccccc1 (stereo unspecified),T/C,"endpoint: median survival time, dose: 5.0 mg/kg/injection, schedule: Q01DX005 (ip), vehicle: distilled water + Tween-80",109 % of control
same,T/C,"endpoint: median survival time, dose: 10.0 mg/kg/injection, schedule: Q01DX005 (ip), vehicle: distilled water + Tween-80",98 % of control
same,T/C,"endpoint: median survival time, dose: 20.0 mg/kg/injection, schedule: Q01DX005 (ip), vehicle: distilled water + Tween-80",96 % of control
same,T/C,"endpoint: median survival time, dose: 40.0 mg/kg/injection, schedule: Q01DX005 (ip), vehicle: distilled water + Tween-80",105 % of control
same,T/C,"endpoint: median survival time, dose: 80.0 mg/kg/injection, schedule: Q01DX005 (ip), vehicle: distilled water + Tween-80",117 % of control
CCCCCC(C)(C)O,T/C,"endpoint: mean survival time, dose: 100.0 mg/kg/injection, schedule: Q04DX003 (ip), vehicle: saline sonified",94 % of control
same,T/C,"endpoint: mean survival time, dose: 200.0 mg/kg/injection, schedule: Q04DX003 (ip), vehicle: saline sonified",90 % of control
same,T/C,"endpoint: mean survival time, dose: 400.0 mg/kg/injection, schedule: Q04DX003 (ip), vehicle: saline sonified",101 % of control
CCOC(=O)/C=C(\C)N1CCCCC1,T/C,"endpoint: mean survival time, dose: 100.0 mg/kg/injection, schedule: Q04DX003 (ip), vehicle: saline",92 % of control
same,T/C,"endpoint: mean survival time, dose: 200.0 mg/kg/injection, schedule: Q04DX003 (ip), vehicle: saline",91 % of control
same,T/C,"endpoint: mean survival time, dose: 400.0 mg/kg/injection, schedule: Q04DX003 (ip), vehicle: saline",94 % of control
N/C(=N\N=C(c1ccccc1)c1ccccc1)N[N+](=O)[O-],T/C,[2],97 % of control
same,T/C,[3],100 % of control
same,T/C,[1],103 % of control
O=S1CCCO1 (stereo unspecified),T/C,"endpoint: mean survival time, dose: 18.8 mg/kg/injection, schedule: Q04DX003 (ip), vehicle: saline",101 % of control
NC(CS)=NCCc1nc2ccccc2[nH]1,T/C,"endpoint: mean survival time, dose: 6.25 mg/kg/injection, schedule: Q04DX002 (ip), vehicle: saline",96 % of control
same,T/C,"endpoint: mean survival time, dose: 12.5 mg/kg/injection, schedule: Q04DX002 (ip), vehicle: saline",93 % of control
same,T/C,"endpoint: mean survival time, dose: 25.0 mg/kg/injection, schedule: Q04DX002 (ip), vehicle: saline",96 % of control and 104 % of control
same,T/C,"endpoint: mean survival time, dose: 50.0 mg/kg/injection, schedule: Q04DX002 (ip), vehicle: saline",106 % of control
CNC(=O)Oc1cccc(NC(=O)OC(C)C(C)C)c1 (stereo unspecified),T/C,[2],98 % of control
same,T/C,[3],90 % of control
same,T/C,[1],96 % of control
Clc1cc(Cl)c(CBr)cc1CBr,T/C,"endpoint: mean survival time, dose: 12.5 mg/kg/injection, schedule: Q01DX009 (ip), vehicle: saline with Tween-80",91 % of control
same,T/C,[3],90 % of control
CCN(CC)CCCOC(=O)c1ccc(N)cc1,T/C,"endpoint: mean survival time, dose: 12.5 mg/kg/injection, schedule: Q04DX003 (ip), vehicle: saline",107 % of control
same,T/C,"endpoint: mean survival time, dose: 25.0 mg/kg/injection, schedule: Q04DX003 (ip), vehicle: saline",105 % of control
same,T/C,"endpoint: mean survival time, dose: 50.0 mg/kg/injection, schedule: Q04DX003 (ip), vehicle: saline",101 % of control
CCNC1=C(C)C(=O)C2=C(C1=O)C(COC(N)=O)C1(O)C3C(CN21)N3C (stereo unspecified),T/C,"endpoint: mean survival time, dose: 1.5 mg/kg/injection, schedule: Q01DX001 (ip), vehicle: saline",98 % of control
same,T/C,"endpoint: mean survival time, dose: 3.0 mg/kg/injection, schedule: Q01DX001 (ip), vehicle: saline",95 % of control
same,T/C,"endpoint: mean survival time, dose: 6.0 mg/kg/injection, schedule: Q01DX001 (ip), vehicle: saline",101 % of control
same,T/C,"endpoint: mean survival time, dose: 12.0 mg/kg/injection, schedule: Q01DX001 (ip), vehicle: saline",93 % of control
same,T/C,"endpoint: mean survival time, dose: 24.0 mg/kg/injection, schedule: Q01DX001 (ip), vehicle: saline",95 % of control
same,T/C,"endpoint: mean survival time, dose: 30.0 mg/kg/injection, schedule: Q01DX001 (ip), vehicle: water",100 % of control
same,T/C,"endpoint: mean survival time, dose: 60.0 mg/kg/injection, schedule: Q01DX001 (ip), vehicle: water",101 % of control
CC1SCCCS1,T/C,"endpoint: mean survival time, dose: 12.5 mg/kg/injection, schedule: Q04DX003 (ip), vehicle: other",106 % of control
same,T/C,"endpoint: mean survival time, dose: 25.0 mg/kg/injection, schedule: Q04DX003 (ip), vehicle: other",104 % of control
same,T/C,"endpoint: mean survival time, dose: 50.0 mg/kg/injection, schedule: Q04DX003 (ip), vehicle: other",102 % of control
same,T/C,"endpoint: mean survival time, dose: 100.0 mg/kg/injection, schedule: Q04DX003 (ip), vehicle: other",102 % of control
same,T/C,"endpoint: mean survival time, dose: 200.0 mg/kg/injection, schedule: Q04DX003 (ip), vehicle: other",97 % of control
CC(/C=N\N=C(N)N)=N/N=C(N)N,T/C,"endpoint: median survival time, dose: 5.0 mg/kg/injection, schedule: Q01DX009 (ip), vehicle: saline",94 % of control
Cc1nc(N)sc1S(=O)(=O)F,T/C,"endpoint: mean survival time, dose: 25.0 mg/kg/injection, schedule: Q01DX009 (ip), vehicle: saline with Tween-80",97 % of control
same,T/C,"endpoint: mean survival time, dose: 50.0 mg/kg/injection, schedule: Q01DX009 (ip), vehicle: saline with Tween-80",111 % of control
same,T/C,[4],94 % of control and 108 % of control
same,T/C,[5],101 % of control

# From PubChem BioAssay AID256 (DTP/NCI, 2004)
